Experiments:
HepG2 = assay: Antiproliferative activity against human HepG2 cells expressing VEGFR2 assessed as reduction in cell growth incubated for 48 hrs by MTT assay; format: functional, cell-based; conditions: HepG2, 48 h
MDA-MB-231 = assay: Antiproliferative activity against human MDA-MB-231 cells expressing EGFR assessed as reduction in cell growth incubated for 48 hrs by MTT assay; format: functional, cell-based; conditions: MDA-MB-231, 48 h
A549 = assay: Antiproliferative activity against human A549 cells expressing EGFR assessed as reduction in cell growth incubated for 48 hrs by MTT assay; format: functional, cell-based; conditions: A549, 48 h
[1] = molecular target: Epidermal growth factor receptor (Homo sapiens) (UniProt P00533); assay: Inhibition of EGFR (unknown origin) using Poly (Glu, Tyr) 4:1 as substrate at 1 uM preincubated with substrate followed by enzyme challenge for 1 hr by ELISA relative to control
Sequence of Epidermal growth factor receptor (Homo sapiens) (P00533 whole entry): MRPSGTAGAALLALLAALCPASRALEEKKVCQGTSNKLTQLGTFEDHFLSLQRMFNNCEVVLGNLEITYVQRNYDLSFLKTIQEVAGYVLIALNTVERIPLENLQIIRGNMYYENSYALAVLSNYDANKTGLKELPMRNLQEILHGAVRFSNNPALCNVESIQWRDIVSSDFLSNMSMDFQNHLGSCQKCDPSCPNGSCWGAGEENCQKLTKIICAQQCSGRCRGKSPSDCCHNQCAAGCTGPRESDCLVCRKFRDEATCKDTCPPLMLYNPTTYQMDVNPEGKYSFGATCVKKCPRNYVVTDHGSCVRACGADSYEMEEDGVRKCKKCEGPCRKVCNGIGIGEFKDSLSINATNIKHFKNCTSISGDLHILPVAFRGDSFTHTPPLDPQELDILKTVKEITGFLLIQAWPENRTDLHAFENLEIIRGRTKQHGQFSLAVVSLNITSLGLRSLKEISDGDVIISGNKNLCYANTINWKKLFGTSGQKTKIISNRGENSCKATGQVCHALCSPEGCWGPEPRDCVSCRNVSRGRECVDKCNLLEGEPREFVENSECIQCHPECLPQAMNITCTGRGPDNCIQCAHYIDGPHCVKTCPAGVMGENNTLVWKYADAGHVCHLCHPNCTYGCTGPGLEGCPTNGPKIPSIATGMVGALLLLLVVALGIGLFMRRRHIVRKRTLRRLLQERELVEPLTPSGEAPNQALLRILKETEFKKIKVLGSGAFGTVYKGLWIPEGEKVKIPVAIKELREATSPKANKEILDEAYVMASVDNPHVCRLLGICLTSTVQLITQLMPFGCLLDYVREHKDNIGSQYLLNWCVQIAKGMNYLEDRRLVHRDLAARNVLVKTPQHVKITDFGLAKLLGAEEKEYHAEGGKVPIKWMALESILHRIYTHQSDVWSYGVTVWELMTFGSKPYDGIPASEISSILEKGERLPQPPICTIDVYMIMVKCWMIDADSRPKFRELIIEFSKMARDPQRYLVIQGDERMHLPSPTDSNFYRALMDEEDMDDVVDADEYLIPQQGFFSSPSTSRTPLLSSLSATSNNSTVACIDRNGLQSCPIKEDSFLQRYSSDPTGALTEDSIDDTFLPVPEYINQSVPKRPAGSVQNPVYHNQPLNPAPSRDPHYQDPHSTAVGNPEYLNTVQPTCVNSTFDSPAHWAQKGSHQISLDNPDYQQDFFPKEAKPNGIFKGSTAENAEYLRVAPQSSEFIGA

[2] = molecular target: T1, Vascular endothelial growth factor receptor 2 (Homo sapiens, UniProt P35968); assay: Inhibition of VEGFR2 (unknown origin) using Poly (Glu, Tyr) 4:1 as substrate preincubated with substrate followed by enzyme challenge for 1 hr by ELISA
T1 sequence (P35968 whole entry): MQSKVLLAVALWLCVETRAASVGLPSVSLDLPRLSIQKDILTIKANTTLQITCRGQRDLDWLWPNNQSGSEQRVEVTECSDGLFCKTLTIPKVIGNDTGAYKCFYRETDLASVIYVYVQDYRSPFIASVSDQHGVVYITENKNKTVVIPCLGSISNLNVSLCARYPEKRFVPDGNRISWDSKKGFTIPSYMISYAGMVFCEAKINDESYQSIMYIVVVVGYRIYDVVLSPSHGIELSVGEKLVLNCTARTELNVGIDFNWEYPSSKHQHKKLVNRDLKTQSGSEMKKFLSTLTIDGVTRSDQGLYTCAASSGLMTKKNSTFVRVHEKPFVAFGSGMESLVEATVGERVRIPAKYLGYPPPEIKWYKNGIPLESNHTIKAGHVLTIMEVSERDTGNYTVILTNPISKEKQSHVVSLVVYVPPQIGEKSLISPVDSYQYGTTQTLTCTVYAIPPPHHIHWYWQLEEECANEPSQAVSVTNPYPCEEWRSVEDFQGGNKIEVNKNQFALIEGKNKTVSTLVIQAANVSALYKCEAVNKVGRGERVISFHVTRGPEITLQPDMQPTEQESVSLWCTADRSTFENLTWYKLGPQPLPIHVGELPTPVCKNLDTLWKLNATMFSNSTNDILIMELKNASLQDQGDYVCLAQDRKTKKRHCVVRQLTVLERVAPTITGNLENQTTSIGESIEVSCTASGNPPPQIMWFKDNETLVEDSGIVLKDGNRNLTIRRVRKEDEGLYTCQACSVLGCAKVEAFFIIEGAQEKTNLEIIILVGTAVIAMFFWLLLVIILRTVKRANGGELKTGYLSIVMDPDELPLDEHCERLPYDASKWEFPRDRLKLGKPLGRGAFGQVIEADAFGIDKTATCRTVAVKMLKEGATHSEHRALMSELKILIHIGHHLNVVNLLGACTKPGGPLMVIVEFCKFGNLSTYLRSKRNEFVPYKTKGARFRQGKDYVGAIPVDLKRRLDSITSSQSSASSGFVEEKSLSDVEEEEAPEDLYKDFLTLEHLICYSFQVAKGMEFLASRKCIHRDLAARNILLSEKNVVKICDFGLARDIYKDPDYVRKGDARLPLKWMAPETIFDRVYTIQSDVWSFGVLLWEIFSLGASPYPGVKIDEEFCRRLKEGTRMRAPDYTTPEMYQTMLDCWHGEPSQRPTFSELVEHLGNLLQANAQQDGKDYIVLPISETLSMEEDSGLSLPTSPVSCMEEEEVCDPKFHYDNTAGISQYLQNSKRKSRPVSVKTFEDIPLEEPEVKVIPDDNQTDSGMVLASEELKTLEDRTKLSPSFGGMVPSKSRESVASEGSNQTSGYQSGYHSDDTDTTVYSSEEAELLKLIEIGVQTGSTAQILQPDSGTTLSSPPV

[3] = molecular target: T1, Vascular endothelial growth factor receptor 2; conditions: at 1 µM
Description: Inhibition of VEGFR2 (unknown origin) using Poly (Glu, Tyr) 4:1 as substrate at 1 uM preincubated with substrate followed by enzyme challenge for 1 hr by ELISA relative to control

HUVEC = assay: Antiproliferative activity against human HUVEC cells expressing VEGFR2 assessed as reduction in cell growth incubated for 48 hrs by MTT assay; format: functional, cell-based

Cc1ccc(CC(=O)Nc2ccc3[nH]c(-c4ccc(Cl)cc4)nc3c2)cc1
IC50 (HepG2): 5.56 µM | IC50 (MDA-MB-231): 63.2 µM | IC50 (A549): 59.6 µM | inhibition [1]: 48.3% | IC50 [2]: 0.0737 µM | inhibition [3]: 100% | IC50 (HUVEC): 3.21 µM

COc1ccc(CC(=O)Nc2ccc3oc(-c4ccc(Cl)cc4)nc3c2)cc1
IC50 (HepG2): 8.22 µM | IC50 (MDA-MB-231): 74.3 µM | IC50 (A549): 74.4 µM | inhibition [1]: 49.4% | IC50 [2]: 0.0973 µM | inhibition [3]: 102% | IC50 (HUVEC): 5.25 µM

COc1ccc(CC(=O)Nc2ccc3oc(-c4ccccc4Cl)nc3c2)cc1
IC50 (HepG2): 30.8 µM | IC50 (MDA-MB-231): 76.2 µM | IC50 (A549): > 100 µM | inhibition [1]: 43.8% | IC50 [2]: 0.444 µM | inhibition [3]: 90.1% | IC50 (HUVEC): 15.4 µM

Cc1ccc(CC(=O)Nc2ccc3oc(-c4ccccc4Br)nc3c2)cc1
IC50 (HepG2): 33.1 µM | IC50 (MDA-MB-231): 74.3 µM | IC50 (A549): 40.2 µM | inhibition [1]: 39.1% | IC50 [2]: 0.842 µM | inhibition [3]: 89.1% | IC50 (HUVEC): 23.6 µM

O=C(Nc1ccc2[nH]c(-c3ccc(Cl)cc3)nc2c1)c1ccc(Cl)c(F)c1
IC50 (HepG2): 26.3 µM | IC50 (MDA-MB-231): 69.4 µM | IC50 (A549): 36.6 µM | inhibition [1]: 45.2% | IC50 [2]: 0.988 µM | inhibition [3]: 87.5% | IC50 (HUVEC): 13.4 µM

COc1ccc(CC(=O)Nc2ccc3oc(-c4ccccc4)nc3c2)cc1OC
IC50 (HepG2): 16.4 µM | IC50 (MDA-MB-231): 94.3 µM | IC50 (A549): 89.2 µM | inhibition [1]: 37.2% | IC50 [2]: 0.579 µM | inhibition [3]: 83.5% | IC50 (HUVEC): 18.4 µM

Cc1ccc(CC(=O)Nc2ccc3oc(-c4ccccc4Cl)nc3c2)cc1
IC50 (HepG2): 36.3 µM | IC50 (MDA-MB-231): 47.7 µM | IC50 (A549): 64.4 µM | inhibition [1]: 47.5% | IC50 [2]: 0.489 µM | inhibition [3]: 93.5% | IC50 (HUVEC): 16.3 µM

COc1cc(CC(=O)Nc2ccc3[nH]c(-c4ccc(Cl)cc4)nc3c2)cc(OC)c1OC
IC50 (HepG2): 3.43 µM | IC50 (MDA-MB-231): 75.9 µM | IC50 (A549): 36.8 µM | inhibition [1]: 43.1% | IC50 [2]: 0.419 µM | inhibition [3]: 90.2% | IC50 (HUVEC): 7.32 µM

COc1cc(CC(=O)Nc2ccc3oc(-c4ccc(Cl)cc4)nc3c2)cc(OC)c1OC
IC50 (HepG2): 28.2 µM | IC50 (MDA-MB-231): > 100 µM | IC50 (A549): > 100 µM | inhibition [1]: 58.9% | IC50 [2]: 0.259 µM | inhibition [3]: 91.5% | IC50 (HUVEC): 13.3 µM

COc1cc(CC(=O)Nc2ccc3oc(-c4ccccc4Cl)nc3c2)cc(OC)c1OC
IC50 (HepG2): 48.9 µM | IC50 (MDA-MB-231): > 100 µM | IC50 (A549): > 100 µM | inhibition [1]: 26.5% | inhibition [3]: 75.8% | IC50 (HUVEC): 29.5 µM

O=C(Nc1ccc2oc(-c3ccccc3Cl)nc2c1)c1ccc(Br)c(F)c1
IC50 (HepG2): 33 µM | IC50 (MDA-MB-231): > 100 µM | IC50 (A549): > 100 µM | inhibition [1]: 21.4% | inhibition [3]: 59.5% | IC50 (HUVEC): 50.2 µM

Cc1ccc(CC(=O)Nc2ccc3oc(-c4ccccc4F)nc3c2)cc1
IC50 (HepG2): 39.2 µM | IC50 (MDA-MB-231): 93.7 µM | IC50 (A549): 83.3 µM | inhibition [1]: 39.5% | IC50 [2]: 0.233 µM | inhibition [3]: 97.3% | IC50 (HUVEC): 12.8 µM

Cc1ccc(CC(=O)Nc2ccc3oc(-c4ccc(Cl)c(Br)c4)nc3c2)cc1
IC50 (HepG2): 64.2 µM | IC50 (MDA-MB-231): > 100 µM | IC50 (A549): > 100 µM | inhibition [1]: 37.4% | inhibition [3]: 81.7% | IC50 (HUVEC): 37.2 µM

O=C(Nc1ccc2oc(-c3ccccc3Br)nc2c1)c1ccc(Cl)c(F)c1
IC50 (HepG2): 86.2 µM | IC50 (MDA-MB-231): 93.3 µM | IC50 (A549): 74.2 µM | inhibition [1]: 22.6% | inhibition [3]: 59.3% | IC50 (HUVEC): 50.6 µM

COc1ccc(CC(=O)Nc2ccc3oc(-c4ccccc4F)nc3c2)cc1OC
IC50 (HepG2): > 100 µM | IC50 (MDA-MB-231): > 100 µM | IC50 (A549): > 100 µM | inhibition [1]: 32.3% | inhibition [3]: 84.2% | IC50 (HUVEC): 16.2 µM

COc1ccc(CC(=O)Nc2ccc3oc(-c4ccccc4Cl)nc3c2)cc1OC
IC50 (HepG2): 17.3 µM | IC50 (MDA-MB-231): > 100 µM | IC50 (A549): > 100 µM | inhibition [1]: 36.2% | inhibition [3]: 86.4% | IC50 (HUVEC): 20.2 µM

COc1cc(CC(=O)Nc2ccc3oc(-c4ccc(Cl)c(Br)c4)nc3c2)cc(OC)c1OC
IC50 (HepG2): > 100 µM | IC50 (MDA-MB-231): > 100 µM | IC50 (A549): > 100 µM | inhibition [1]: 21.5% | inhibition [3]: 47.5% | IC50 (HUVEC): 52.4 µM

COc1ccc(CC(=O)Nc2ccc3oc(-c4ccccc4F)nc3c2)cc1
IC50 (HepG2): 37.3 µM | IC50 (MDA-MB-231): > 100 µM | IC50 (A549): > 100 µM | inhibition [1]: 42.8% | IC50 [2]: 0.166 µM | inhibition [3]: 94.6% | IC50 (HUVEC): 14.2 µM

O=C(Nc1ccc2oc(-c3ccccc3)nc2c1)c1ccc(Cl)c(Br)c1
IC50 (HepG2): 68.2 µM | IC50 (MDA-MB-231): > 100 µM | IC50 (A549): 78.6 µM | inhibition [1]: 32.5% | inhibition [3]: 72.4% | IC50 (HUVEC): 16.9 µM

COc1ccc(CC(=O)Nc2ccc3oc(-c4ccc(Cl)cc4)nc3c2)cc1OC
IC50 (HepG2): 24.3 µM | IC50 (MDA-MB-231): > 100 µM | IC50 (A549): > 100 µM | inhibition [1]: 52.2% | IC50 [2]: 0.386 µM | inhibition [3]: 92.6% | IC50 (HUVEC): 11.4 µM

O=C(Nc1ccc2oc(-c3ccccc3F)nc2c1)c1ccc(Cl)c(F)c1
IC50 (HepG2): 8.28 µM | IC50 (MDA-MB-231): > 100 µM | IC50 (A549): > 100 µM | inhibition [1]: 27.8% | inhibition [3]: 70.9% | IC50 (HUVEC): 20.5 µM

COc1cc(CC(=O)Nc2ccc3oc(-c4ccccc4)nc3c2)cc(OC)c1OC
IC50 (HepG2): 26.4 µM | IC50 (MDA-MB-231): 79.5 µM | IC50 (A549): 93.4 µM | inhibition [1]: 47.3% | IC50 [2]: 0.357 µM | inhibition [3]: 89.3% | IC50 (HUVEC): 19.2 µM

O=C(Nc1ccc2oc(-c3ccc(Cl)cc3)nc2c1)c1ccc(Br)c(F)c1
IC50 (HepG2): 54.5 µM | IC50 (MDA-MB-231): > 100 µM | IC50 (A549): 89.3 µM | inhibition [1]: 35.8% | inhibition [3]: 70.8% | IC50 (HUVEC): 37.2 µM

O=C(Nc1ccc2oc(-c3ccccc3Cl)nc2c1)c1ccc(Cl)c(F)c1
IC50 (HepG2): 17 µM | IC50 (MDA-MB-231): > 100 µM | IC50 (A549): 62.9 µM | inhibition [1]: 28.5% | inhibition [3]: 71.3% | IC50 (HUVEC): 36.5 µM

O=C(Nc1ccc2oc(-c3ccc(Cl)cc3)nc2c1)c1ccc(Cl)c(Br)c1
IC50 (HepG2): 37 µM | IC50 (MDA-MB-231): > 100 µM | IC50 (A549): > 100 µM | inhibition [1]: 44.1% | IC50 [2]: 0.338 µM | inhibition [3]: 90.2% | IC50 (HUVEC): 13.4 µM

O=C(Nc1ccc2[nH]c(-c3ccc(Cl)cc3)nc2c1)c1ccc(Cl)c(Br)c1
IC50 (HepG2): 12 µM | IC50 (MDA-MB-231): 74.4 µM | IC50 (A549): 30.4 µM | inhibition [1]: 40.8% | IC50 [2]: 0.542 µM | inhibition [3]: 93.8% | IC50 (HUVEC): 7.61 µM

O=C(Nc1ccc2oc(-c3ccccc3F)nc2c1)c1ccc(Br)c(F)c1
IC50 (HepG2): 16.4 µM | IC50 (MDA-MB-231): > 100 µM | IC50 (A549): 28.3 µM | inhibition [1]: 32.6% | inhibition [3]: 63.8% | IC50 (HUVEC): 40.2 µM

COc1ccc(CC(=O)Nc2ccc3oc(-c4ccc(OC)cc4)nc3c2)cc1
IC50 (HepG2): > 100 µM | IC50 (MDA-MB-231): > 100 µM | IC50 (A549): > 100 µM | inhibition [1]: 19.4% | inhibition [3]: 38.4% | IC50 (HUVEC): 63.6 µM
